This is an account of results in PubChem BioAssay AID180 (DTP/NCI, 2004).

“And” between values parts separate entries of the source, which are not always exact repeats. Equal values may be shown once.

The subject of this test is BDF1 mice, Adenocarcinoma 755 s.c., tumor weight T/C. Nature of the test: NCI In Vivo Anticancer Drug Screen. Data for tumor model Adenocarcinoma 755 (subcutaneous) in B6D2F1 (BDF1) mice. The conditions noted are these: endpoint: mean tumor weight, higher = larger tumour. The essentials:
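Values express treated (T) relative to vehicle-dosed control (C) animals, based on survival or tumour size measured after compound treatment of mice bearing a transplanted tumour.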

Where [1] appears, read: dose: 50.0 mg/kg/injection, schedule: Q01DX011 (ip), vehicle: carboxymethylcellulose (CMC).
Where [2] appears, read: dose: 100.0 mg/kg/injection, schedule: Q01DX011 (ip), vehicle: carboxymethylcellulose (CMC).
[3] abbreviates: dose: 200.0 mg/kg/injection, schedule: Q01DX011 (ip), vehicle: carboxymethylcellulose (CMC).
The mark [4] stands for this setting: dose: 30.0 mg/kg/injection, schedule: Q01DX011 (ip), vehicle: carboxymethylcellulose (CMC).
Setting [5] is: dose: 60.0 mg/kg/injection, schedule: Q01DX011 (ip), vehicle: carboxymethylcellulose (CMC).
The mark [6] stands for this setting: dose: 120.0 mg/kg/injection, schedule: Q01DX011 (ip), vehicle: carboxymethylcellulose (CMC).
Setting [7] is: dose: 240.0 mg/kg/injection, schedule: Q01DX011 (ip), vehicle: carboxymethylcellulose (CMC).
Where [8] appears, read: dose: 6.25 mg/kg/injection, schedule: Q01DX011 (ip), vehicle: methylcellulose (MC).
The mark [9] stands for this setting: dose: 12.5 mg/kg/injection, schedule: Q01DX011 (ip), vehicle: methylcellulose (MC).
The mark [10] stands for this setting: dose: 25.0 mg/kg/injection, schedule: Q01DX011 (ip), vehicle: methylcellulose (MC).
Where [11] appears, read: dose: 60.0 mg/kg/injection, schedule: Q01DX011 (ip), vehicle: saline.

The T/C is the ratio of treated to control. As for `CN(Cc1ccccc1)N=Nc1n[nH]nc1C(N)=O`, the T/C was 75 % of control under setting [1], 91 % of control under setting [2] and 56 % of control under setting [3].

As for `CN(C)N=Nc1ccc(-c2ccc(N=NN(C)C)cc2)cc1`, the T/C was 92 % of control (dose: 17.5 mg/kg/injection, schedule: Q01DX011 (ip), vehicle: other); 56 % of control (dose: 31.2 mg/kg/injection, schedule: Q01DX011 (ip), vehicle: other); 72 % of control (dose: 35.0 mg/kg/injection, schedule: Q01DX011 (ip), vehicle: other); 70 % of control (dose: 50.0 mg/kg/injection, schedule: Q01DX011 (ip), vehicle: water); 46 % of control (dose: 62.5 mg/kg/injection, schedule: Q01DX011 (ip), vehicle: other); 75 % of control (dose: 70.0 mg/kg/injection, schedule: Q01DX011 (ip), vehicle: other). For the same molecule, the T/C reads like this: (dose: 100.0 mg/kg/injection, schedule: Q01DX011 (ip), vehicle: water) 39 % of control; (dose: 125.0 mg/kg/injection, schedule: Q01DX011 (ip), vehicle: other) 32 % of control; (dose: 140.0 mg/kg/injection, schedule: Q01DX011 (ip), vehicle: other) 40 % of control; (dose: 150.0 mg/kg/injection, schedule: Q01DX011 (ip), vehicle: water) 46 % of control; (dose: 200.0 mg/kg/injection, schedule: Q01DX011 (ip), vehicle: water) 61 % of control.

Take `O=C(O)CCC(=O)CCl`: the T/C (dose: 34.0 mg/kg/injection, schedule: Q01DX011 (ip), vehicle: methylcellulose (MC)) is 46 % of control.

For `Nc1nc2c(nc(I)n2C2OC(CO)C(O)C2O)c(=O)[nH]1` (stereo not drawn), the T/C is 94 % of control under setting [4], 87 % of control under setting [5], 26 % of control under setting [6] and 40 % of control under setting [7].

In the case of `CCCCn1cnc2c(SC(C)C)nc(N)nc21`, the T/C runs as follows: (dose: 1.56 mg/kg/injection, schedule: Q01DX011 (ip), vehicle: methylcellulose (MC)) 64 % of control; (dose: 3.12 mg/kg/injection, schedule: Q01DX011 (ip), vehicle: methylcellulose (MC)) 57 % of control; under setting [8], 14 % of control and 24 % of control; under setting [9], 3 % of control and 8 % of control.

`O=C(CCBr)N1CCCN(C(=O)CCBr)CC1`: the T/C by setting is: (dose: 28.0 mg/kg/injection, schedule: Q01DX011 (ip), vehicle: carboxymethylcellulose (CMC)) 85 % of control; (dose: 57.0 mg/kg/injection, schedule: Q01DX011 (ip), vehicle: carboxymethylcellulose (CMC)) 60 % of control; (dose: 57.0 mg/kg/injection, schedule: Q01DX011 (ip), vehicle: methylcellulose (MC)) 58 % of control and 78 % of control; (dose: 113.0 mg/kg/injection, schedule: Q01DX011 (ip), vehicle: carboxymethylcellulose (CMC)) 16 % of control; (dose: 113.0 mg/kg/injection, schedule: Q01DX011 (ip), vehicle: methylcellulose (MC)) 35 % of control.

Consider `Nc1ncnc2c1ncn2C(C=O)OC(C=O)CO` (stereo not drawn), for which, for the setting “dose: 15.0 mg/kg/injection, schedule: Q01DX011 (ip), vehicle: carboxymethylcellulose (CMC)”, the T/C was 93 % of control.

For `c1cncc(CSc2ncnc3nc[nH]c23)c1`, the T/C is 79 % of control (dose: 0.78 mg/kg/injection, schedule: Q01DX011 (ip), vehicle: methylcellulose (MC)); 40 % of control (dose: 1.55 mg/kg/injection, schedule: Q01DX011 (ip), vehicle: methylcellulose (MC)); 61 % of control (dose: 3.1 mg/kg/injection, schedule: Q01DX011 (ip), vehicle: methylcellulose (MC)); 8 % of control and 20 % of control under setting [8]; 4 % of control under setting [9]; 2 % of control under setting [10]. In addition, the T/C (dose: 50.0 mg/kg/injection, schedule: Q01DX011 (ip), vehicle: methylcellulose (MC)) was 2 % of control.

Turning to `O=C(CCCl)N1CCc2ccccc2C1`, the T/C is 71 % of control (dose: 25.0 mg/kg/injection, schedule: Q01DX011 (sc), vehicle: olive oil, sesame oil, peanut oil) and 99 % of control (dose: 75.0 mg/kg/injection, schedule: Q01DX011 (sc), vehicle: olive oil, sesame oil, peanut oil).

For the molecule `NC(=O)CCl`, the T/C (dose: 25.0 mg/kg/injection, schedule: Q01DX011 (ip), vehicle: other) is 91 % of control and the T/C (dose: 50.0 mg/kg/injection, schedule: Q01DX011 (ip), vehicle: other) is 64 % of control.

As for `Nc1nc(SCc2ccc(Br)cc2)c2ncn(C3OC(CO)C(O)C3O)c2n1` (stereo not drawn), the T/C is, setting by setting: (dose: 6.0 mg/kg/injection, schedule: Q01DX011 (ip), vehicle: methylcellulose (MC)) 80 % of control; under setting [10], 32 % of control; (dose: 30.0 mg/kg/injection, schedule: Q01DX011 (ip), vehicle: methylcellulose (MC)) 41 % of control; (dose: 75.0 mg/kg/injection, schedule: Q01DX011 (ip), vehicle: methylcellulose (MC)) 5 % of control.

Consider `CN(C)[C@@H]1C(=O)C(C(=O)NCN(CCCl)CCCl)=C(O)[C@@]2(O)C(=O)C3=C(O)c4c(O)cccc4[C@@](C)(O)[C@H]3C[C@@H]12`, for which the T/C was 111 % of control (dose: 0.5 mg/kg/injection, schedule: Q01DX011 (ip), vehicle: methylcellulose (MC)); 98 % of control (dose: 5.0 mg/kg/injection, schedule: Q01DX011 (ip), vehicle: methylcellulose (MC)); 44 % of control (dose: 10.0 mg/kg/injection, schedule: Q01DX011 (ip), vehicle: methylcellulose (MC)); 37 % of control and 60 % of control (dose: 15.0 mg/kg/injection, schedule: Q01DX011 (ip), vehicle: saline); 35 % of control (dose: 20.0 mg/kg/injection, schedule: Q01DX011 (ip), vehicle: methylcellulose (MC)); 36 % of control under setting [11].

Consider `CC[C@]1(O)C[C@H]2CN(CCc3c([nH]c4ccccc34)[C@@](C(=O)OC)(c3cc4c(cc3OC)N(C)[C@H]3[C@@](O)(C(=O)OC)[C@H](OC(C)=O)[C@]5(CC)C=CCN6CC[C@]43[C@@H]65)C2)C1`, for which the T/C is, setting by setting: (dose: 0.05 mg/kg/injection, schedule: Q01DX011 (ip), vehicle: carboxymethylcellulose (CMC)) 68 % of control and 76 % of control; (dose: 0.1 mg/kg/injection, schedule: Q01DX011 (ip), vehicle: carboxymethylcellulose (CMC)) 94 % of control and 87 % of control.

For `[I][Hg][CH2]C1OC2CCC1C[CH]2[Hg][I]` (stereo not drawn), the T/C (dose: 6.0 mg/kg/injection, schedule: Q01DX011 (ip), vehicle: carboxymethylcellulose (CMC)) is 89 % of control.

As for `CS(=O)(=O)OCCC(=O)NCCNC(=O)CCOS(C)(=O)=O`, the T/C runs as follows: (dose: 6.3 mg/kg/injection, schedule: Q01DX011 (ip), vehicle: saline) 167 % of control; (dose: 10.0 mg/kg/injection, schedule: Q01DX011 (ip), vehicle: saline) 64 % of control; (dose: 20.0 mg/kg/injection, schedule: Q01DX011 (ip), vehicle: saline) 120 % of control; under setting [10], 4 % of control; (dose: 25.0 mg/kg/injection, schedule: Q01DX011 (ip), vehicle: saline) 65 % of control; (dose: 30.0 mg/kg/injection, schedule: Q01DX011 (ip), vehicle: saline) 20 % of control. In addition, the T/C reads like this: (dose: 40.0 mg/kg/injection, schedule: Q01DX011 (ip), vehicle: saline) 12 % of control; (dose: 50.0 mg/kg/injection, schedule: Q01DX011 (ip), vehicle: saline) 5 % of control and 10 % of control; under setting [11], 1 % of control.

Consider `CC(=O)N[C@H]1CC[C@H]2[C@@H]3CCC4=CC(=O)CC[C@]4(C)[C@H]3CC[C@]12C`, for which the T/C was 99 % of control (dose: 5.0 mg/kg/injection, schedule: Q01DX011 (sc), vehicle: steriod suspending solution); 111 % of control (dose: 50.0 mg/kg/injection, schedule: Q01DX011 (sc), vehicle: steriod suspending solution); 89 % of control (dose: 100.0 mg/kg/injection, schedule: Q01DX011 (sc), vehicle: steriod suspending solution).

As to `Nc1ccc2ccccc2c1N=Nc1ccccc1`, the T/C is 68 % of control (dose: 25.0 mg/kg/injection, schedule: Q01DX011 (ip), vehicle: carboxymethylcellulose (CMC)); 27 % of control under setting [1]; 34 % of control under setting [2]; 25 % of control under setting [3].

For the molecule `Cn1c(=O)c2[nH]c(N/N=C/c3ccccc3C(=O)O)nc2n(C)c1=O`, the T/C runs as follows: under setting [4], 103 % of control; under setting [5], 92 % of control; under setting [6], 88 % of control; under setting [7], 95 % of control.
